Assay [1] concerns BREC. The following applies: VEGF 0.6 nM, sentence cites ref. (2); cited from earlier work.
The test system of assay [2] is BREC. In words: Cell migration assay (modified Boyden chamber). Type of assay: cell-based, bovine. The note with it: VEGF 0.6 nM. Here is the method: Primary cultures of bovine retinal endothelial cells (BREC) were isolated and cultured as described (17). […] A modified Boyden chamber migration assay was performed by using BREC (25). The top and bottom surface of the chamber membrane was coated with collagen I. […] Cells that migrated to the bottom of the chamber were enumerated by counting SYTOX green (Molecular Probes) nucleic acid-stained cells.

Another assay has as its system E2F. In words: E2F luciferase assay in BREC. The class given is cell-based, bovine. Here is the method:
Luciferase reporter constructs (Mercury Cell Cycle Profiling System, CLONTECH) were introduced into cells with LipofectAMINE reagent (Life Technologies, Rockville, Md.) as instructed by the manufacturer. Luciferase activity was measured by using the Dual-Luciferase Reporter Assay system (Promega).

For another assay, the system named is PKCβ2 and Rb. In words: Association of PKCβ2 with Rb in BREC (immunoprecipitation / immunoblot). The class given is cell-based, bovine.
The subject of another assay is Rb. In words: Rb phosphorylation in BREC (phospho-specific antibodies). Type of assay: cell-based, bovine. The following applies: time-dependent, all sites (S249/T242, S780, S795, S807/S811, S821).
Assay [3] deals with BREC. In words: Cell growth assay (DNA content, VEGF-induced proliferation). Type of assay: cell-based, bovine. The following applies: VEGF 0.6 nM, after 4 days. As to the method:
Primary cultures of bovine retinal endothelial cells (BREC) were isolated and cultured as described (17). Only cells from passages 2-7 were used for the experiments.
BREC were plated onto 12-well culture plates and incubated overnight in DMEM containing 10% calf serum, after which the cells were infected with adenovirus (23). After incubation for 4 days at 37° C. with or without VEGF (0.6 nM), the cells were lysed in 0.1% SDS, and the DNA content was measured by means of Hoechst-33258 dye and a fluorometer (model TKO-100, Hoefer). E2 promoter binding factor (E2F) decoys were used as described (24).

As to `CN(C)CCCn1cc(C2=C(c3c[nH]c4ccccc34)C(=O)NC2=O)c2ccccc21` [GFX], the “effect on VEGF's mitogenic activity” value in the assay on BREC [1] is listed as “blocked VEGF's mitogenic activity completely”. Besides, in the assay on BREC [2], the “effect on VEGF-increased BREC migration” value is reported as “inhibited”.

As to `COc1cccc(-c2cc(=O)c3ccccc3o2)c1N` [PD98059], the “effect on VEGF's mitogenic activity” value in the assay on BREC [1] is on record as “blocked VEGF's mitogenic activity completely”. Also, the “effect on VEGF-increased BREC migration” value in the assay on BREC [2] is “inhibited”.

Turning to `COC[C@H]1OC(=O)c2coc3c2[C@@]1(C)C1=C(C3=O)[C@@H]2CCC(=O)[C@@]2(C)C[C@H]1OC(C)=O` [wortmannin], the “inhibition of VEGF-induced BREC migration” value with BREC [2] is recorded as 41%.

For VEGF, the “increase of E2F activity” value with E2F was found to be 8.6 fold. In addition, the “increase of phosphorylated Rb levels (pS780) in PKCβ2-Rb complex” value in the assay with PKCβ2 and Rb (VEGF 0.6 nM, overexpression of PKCβ2) is 2- to 3 fold. Moreover, the “increase of amount of PKCβ2-associated Rb protein” value in the assay with PKCβ2 and Rb (VEGF 0.6 nM, immunoprecipitation with antibodies to Rb, immunoblot PKCβ2) is 1.7 fold. Also, the “increase of association of PKCβ2 with Rb” value in the assay on PKCβ2 and Rb (immunoprecipitation with anti-PKCβ2 antibody, Rb immunoblot) came out at 2.2 fold. In addition, the “increase of phosphorylation of Rb” value in the assay on Rb was “up to 3 fold”. Moreover, in the assay with BREC [2], the “increase of migration of BREC” value was 2 fold. Moreover, in the assay on BREC [3], the “increase in BREC total DNA content” value was 2 fold.

The values above are taken from patent US20080038245A1, “Methods of modulating angiogenesis” (priority 2001, published 2008).
